The source of these data is patent US5139740A, “Polyprenyl compound composition for soft capsules” (Eisai Co., Ltd., priority 1989, dated 1992).

The conditions of series [1]: cited from earlier work; for adverse reactions: clinical / reported in the literature.
The conditions of series [2]: beagle; 200 mg indometacin farnesyl orally, formulated with the named additive. On the procedure:
In this test, the crossover method was employed by using six female beagles with the administration of 200 mg of indometacin farnesyl orally to each of them 30 min after breakfast, and sampling their blood at intervals to determine the concentration of indometacin farnesyl in their blood according to HPLC.
Six female beagles were used to determine indometacin farnesyl in the blood by the crossover method.
In the test, each sample was orally administered 30 min after breakfast and 2.5 ml of blood was sampled at intervals to determine the concentration of indometacin farnesyl under the HPLC conditions which will be described below.
The maximum blood concentration, Cmax (μg/ml), and the area under the blood concentration-time curve, AUC (μg hr/ml), 6 h after the administration of each of samples A to F were determined and expressed in terms of relative value with respect to those of a standard formulation.
stationary phase: Nucleosil®10 C18, 4.6 mm diameter×150mm
mobile phase: methanol/water (300/16)

A short description of series [3]: Rat lymph absorption test (lymph cannulation method, HPLC). Particulars: SD rats, 12-week old; 5 mg/kg indometacin farnesyl orally, formulated with the named additive. The class given is in vivo. On the procedure:
In this test, 5 mg/kg of indometacin farnesyl was orally administered to SD rats (12-week old) and indometacin farnesyl in the lymphatic vessels was determined according to HPLC by the lymph cannulation method.

Molecules are shown by their SMILES.

For `COc1ccc2c(c1)c(CC(=O)O)c(C)n2C(=O)c1ccc(Cl)cc1` [indometacin], the adverse reactions entry in series [1] is on record as “various adverse reactions such as gastrointestinal or renal disturbances”.

As to `COc1ccc2c(c1)c(CC(=O)OCC=C(C)CC/C=C(\C)CCC=C(C)C)c(C)n2C(=O)c1ccc(Cl)cc1` [indomethacin farnesyl, (6E)-3,7,11-trimethyl-2,6,10-dodecatrienyl 1-(p-chlorobenzoyl)-5-methoxy-2-methyl-lH-indole-3-acetate], the adverse reactions entry in series [1] was “only slight adverse reactions”. The antiinflammatory effect result in series [1] (prior art statement) was “long-lasting antiinflammatory”.

On to `CCCCC/C=C\C/C=C\CCCCCCCC(=O)O` [linolic acid], for which the “absorption of indometacin farnesyl (in words)” value in series [2] is “particularly excellent absorption”. Further, the “absorption of indometacin farnesyl into lymph (in words)” value in series [3] was “particularly excellent absorption”.

As for `CCCCCCCC/C=C\CCCCCCCC(=O)O` [oleic acid], in series [2], the “absorption of indometacin farnesyl (in words)” value is “particularly excellent absorption”.
